Test results as given in patent publication US20080216197A1, “Polypeptide Having Function Related to Pyridoxine Biosynthesis, Polynucleotide Coding the Polypeptide, and Those Use” (Genomine, Inc., priority 2005, published 2008).
Where a name gives a salt, the structure may show the parent alone.

Experiments:
Arabidopsis thaliana = assay: PPT treatment of T2 plants grown in Petri dishes (segregation check); type: in vivo; conditions: 12.5 mg/L PPT
[1] = system: mutant Arabidopsis thaliana; assay: Phenotype recovery of mutant T2 plants on pyridoxine-supplemented MS medium; type: in vivo; conditions: 2.5 mg/L pyridoxine-HCl in MS medium, 30 seeds/Petri dish, slight etiolation observed, FIG. 7
Method: The analysis of the AtPDX5 domain led to the inference that the AtPDX5 gene might have an enzymatic function involved in the pyridoxine biosynthesis pathway. To examine this, T2 plants of the mutant Arabidopsis thaliana were cultured in Petri dishes containing a 2.5 mg/L pyridoxine-HCl (Sigma, USA)-supplemented MS medium (30 seeds/Petri dish). […] In addition, the etiolation of the mutant plants was believed to be attributed to a low content of pyridoxine in the medium. Based on the fact that the phenotype recovery was induced by the addition of pyridoxine, the AtPDX5 gene is concluded to be directly responsible for pyridoxine biosynthesis. As described hereinbefore, T2 plants of the mutant Arabidopsis thaliana have the phenotype properties of significant growth delay, etiolation throughout leaves, and death in an early stage, and the mutant Arabidopsis thaliana can have the same phenotype as that of the wild-type in the presence of pyridoxine.

Row | SMILES | effect on the five plants having a wild-type phenotype (Arabidopsis thaliana) | effect on the other 25 plants (etiolation and retarded growth phenotype) (Arabidopsis thaliana) | phenotype (growth delay) of the mutant versus the wild-type [1]
1 | CP(=O)(O)CC[C@H](N)C(=O)O [PPT, phosphinothricin] | converted to a fatal phenotype | remained unchanged | 
2 | Cc1ncc(CO)c(CO)c1O [pyridoxine-HCl, 2-methyl-3-hydroxy-4,5-di(hydroxymethyl)pyridine] |  |  | no significant difference in phenotype
